From BindingDB's records for PubMed 29656203 (n/a, 2018)

Experiment: Inhibition of angiotensin II (unknown origin)

Structure (SMILES) | IC50 [nM]
CCCCc1nc2ccc(C3CC(c4ccc(C)cc4)=NO3)cc2c(=O)n1Cc1ccc(-c2ccccc2-c2nnnn2C(c2ccccc2)(c2ccccc2)c2ccccc2)cc1 (configuration not stated) | 22
CCCCc1nc2ccc(C3CC(C(=O)OCC)=NO3)cc2c(=O)n1Cc1ccc(-c2ccccc2-c2nnnn2C(c2ccccc2)(c2ccccc2)c2ccccc2)cc1 (configuration not stated) | 22
